Laboratory results reported in the supplement of paper PMC10307832.

How the values were obtained:
Experiment in all cases: relative viability (nuclei count vs DMSO), 5 days (fraction); higher = more cells survive
[1] = compound: C1=CC=C(C(=C1)C2=CC=C(C=C2)C3=CSC4=C3C(=C(C(=O)N4)C#N)O)O + Cc1cc(Nc2cc(N3CCN(C)CC3)nc(Sc3ccc(NC(=O)C4CC4)cc3)n2)n[nH]1 [Tozasertib] (partner 0.1 µM)
Outline: (§1)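 Cells from lung cancer lines were seeded into 1536-well plates and, one day later, dosed by pin tool. Treatments were either a single drug or a fixed dose of an anchor drug with five library-drug doses (not always all listed) in √10 steps. After 5 days, nuclei were stained in a one-step fixation (final 0.05% Triton X-100, 1% formaldehyde, 1 ug/ml Hoechst) and counted on 4× images, and relative viability is the treated-to-vehicle nuclei ratio, as the median of duplicate plates.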

TGX 221 + Pemetrexed = compound: CC1=CN2C(=O)C=C(N=C2C(=C1)C(C)NC3=CC=CC=C3)N4CCOCC4 [TGX 221] + Nc1nc2[nH]cc(CCc3ccc(C(=O)N[C@@H](CCC(=O)O)C(=O)O)cc3)c2c(=O)[nH]1 [Pemetrexed] (partner 0.2 µM)
Outline: as §1

Ricolinostat + Dasatinib = compound: O=C(CCCCCCNC(=O)c1cnc(N(c2ccccc2)c2ccccc2)nc1)NO [Ricolinostat] + Cc1nc(Nc2ncc(C(=O)Nc3c(C)cccc3Cl)s2)cc(N2CCN(CCO)CC2)n1 [Dasatinib] (partner 0.075 µM)
Outline: as §1

[2] = compound: O=C(CCCCCCNC(=O)c1cnc(N(c2ccccc2)c2ccccc2)nc1)NO [Ricolinostat] + Nc1nc2[nH]cc(CCc3ccc(C(=O)N[C@@H](CCC(=O)O)C(=O)O)cc3)c2c(=O)[nH]1 [Pemetrexed] (partner 0.2 µM)
Outline: as §1

Cell Line: SW 1573
- relative viability ([1]; first compound 0.08 µM): 0.175
- relative viability ([1]; first compound 0.253 µM): 0.205
- relative viability ([1]; first compound 0.8 µM): 0.203
- relative viability ([1]; first compound 2.53 µM): 0.152
- relative viability ([1]; first compound 8 µM): 0.199
- relative viability (TGX 221 + Pemetrexed; first compound 0.08 µM): 0.781
- relative viability (TGX 221 + Pemetrexed; first compound 0.253 µM): 0.788
- relative viability (TGX 221 + Pemetrexed; first compound 0.8 µM): 0.807
- relative viability (TGX 221 + Pemetrexed; first compound 2.53 µM): 0.789
- relative viability (TGX 221 + Pemetrexed; first compound 8 µM): 0.725
- relative viability (Ricolinostat + Dasatinib; first compound 0.08 µM): 0.756
- relative viability (Ricolinostat + Dasatinib; first compound 0.253 µM): 0.507
- relative viability (Ricolinostat + Dasatinib; first compound 0.8 µM): 0.695
- relative viability (Ricolinostat + Dasatinib; first compound 2.53 µM): 0.581
- relative viability ([2]; first compound 0.08 µM): 0.857
- relative viability ([2]; first compound 0.253 µM): 0.742
- relative viability ([2]; first compound 0.8 µM): 1.07
- relative viability ([2]; first compound 2.53 µM): 0.864

Cell Line: NCI-H661
- relative viability ([1]; first compound 0.08 µM): 0.359
- relative viability ([1]; first compound 0.253 µM): 0.386
- relative viability ([1]; first compound 0.8 µM): 0.357
- relative viability ([1]; first compound 2.53 µM): 0.356
- relative viability ([1]; first compound 8 µM): 0.369
- relative viability (TGX 221 + Pemetrexed; first compound 0.08 µM): 0.878
- relative viability (TGX 221 + Pemetrexed; first compound 0.253 µM): 0.919
- relative viability (TGX 221 + Pemetrexed; first compound 0.8 µM): 0.955
- relative viability (TGX 221 + Pemetrexed; first compound 2.53 µM): 0.955
- relative viability (TGX 221 + Pemetrexed; first compound 8 µM): 0.853
- relative viability (Ricolinostat + Dasatinib; first compound 0.08 µM): 0.795
- relative viability (Ricolinostat + Dasatinib; first compound 0.253 µM): 0.88
- relative viability (Ricolinostat + Dasatinib; first compound 0.8 µM): 0.889
- relative viability (Ricolinostat + Dasatinib; first compound 2.53 µM): 0.731
- relative viability ([2]; first compound 0.08 µM): 0.832
- relative viability ([2]; first compound 0.253 µM): 0.879
- relative viability ([2]; first compound 0.8 µM): 0.9
- relative viability ([2]; first compound 2.53 µM): 0.776

Cell Line: PC-3 [JPC-3]
- relative viability ([1]; first compound 0.08 µM): 0.606
- relative viability ([1]; first compound 0.253 µM): 0.401
- relative viability ([1]; first compound 0.8 µM): 0.928
- relative viability ([1]; first compound 2.53 µM): 0.876
- relative viability ([1]; first compound 8 µM): 0.716
- relative viability (TGX 221 + Pemetrexed; first compound 0.08 µM): 1.08
- relative viability (TGX 221 + Pemetrexed; first compound 0.253 µM): 1.09
- relative viability (TGX 221 + Pemetrexed; first compound 0.8 µM): 1.11
- relative viability (TGX 221 + Pemetrexed; first compound 2.53 µM): 1.04
- relative viability (TGX 221 + Pemetrexed; first compound 8 µM): 1
- relative viability (Ricolinostat + Dasatinib; first compound 0.253 µM): 0.905
- relative viability (Ricolinostat + Dasatinib; first compound 0.8 µM): 0.993
- relative viability (Ricolinostat + Dasatinib; first compound 2.53 µM): 0.903
- relative viability ([2]; first compound 0.08 µM): 0.845
- relative viability ([2]; first compound 0.253 µM): 1.11
- relative viability ([2]; first compound 0.8 µM): 0.738
- relative viability ([2]; first compound 2.53 µM): 1

Cell Line: 201T
- relative viability ([1]; first compound 0.08 µM): 0.743
- relative viability ([1]; first compound 0.253 µM): 1.03
- relative viability ([1]; first compound 0.8 µM): 1.01
- relative viability ([1]; first compound 2.53 µM): 1.05
- relative viability ([1]; first compound 8 µM): 0.926
- relative viability (TGX 221 + Pemetrexed; first compound 0.08 µM): 0.324
- relative viability (TGX 221 + Pemetrexed; first compound 0.253 µM): 0.373
- relative viability (TGX 221 + Pemetrexed; first compound 0.8 µM): 0.318
- relative viability (TGX 221 + Pemetrexed; first compound 2.53 µM): 0.351
- relative viability (TGX 221 + Pemetrexed; first compound 8 µM): 0.374
- relative viability (Ricolinostat + Dasatinib; first compound 0.08 µM): 0.471
- relative viability (Ricolinostat + Dasatinib; first compound 0.253 µM): 0.571
- relative viability (Ricolinostat + Dasatinib; first compound 0.8 µM): 0.603
- relative viability (Ricolinostat + Dasatinib; first compound 2.53 µM): 0.498
- relative viability ([2]; first compound 0.08 µM): 0.339
- relative viability ([2]; first compound 0.253 µM): 0.314
- relative viability ([2]; first compound 0.8 µM): 0.334
- relative viability ([2]; first compound 2.53 µM): 0.311

Cell Line: SW 900
- relative viability ([1]; first compound 0.08 µM): 0.618
- relative viability ([1]; first compound 0.253 µM): 0.491
- relative viability ([1]; first compound 0.8 µM): 0.645
- relative viability ([1]; first compound 2.53 µM): 0.539
- relative viability ([1]; first compound 8 µM): 0.491
- relative viability (TGX 221 + Pemetrexed; first compound 0.253 µM): 0.459
- relative viability (TGX 221 + Pemetrexed; first compound 0.8 µM): 0.469
- relative viability (TGX 221 + Pemetrexed; first compound 2.53 µM): 0.41
- relative viability (TGX 221 + Pemetrexed; first compound 8 µM): 0.415
- relative viability (Ricolinostat + Dasatinib; first compound 0.08 µM): 0.495
- relative viability (Ricolinostat + Dasatinib; first compound 0.253 µM): 0.578
- relative viability (Ricolinostat + Dasatinib; first compound 0.8 µM): 0.662
- relative viability (Ricolinostat + Dasatinib; first compound 2.53 µM): 0.352
- relative viability ([2]; first compound 0.08 µM): 0.496
- relative viability ([2]; first compound 0.253 µM): 0.488
- relative viability ([2]; first compound 0.8 µM): 0.491
- relative viability ([2]; first compound 2.53 µM): 0.441

Cell Line: LK-2
- relative viability ([1]; first compound 0.253 µM): 0.152
- relative viability ([1]; first compound 0.8 µM): 0.149
- relative viability ([1]; first compound 2.53 µM): 0.198
- relative viability ([1]; first compound 8 µM): 0.198
- relative viability (TGX 221 + Pemetrexed; first compound 0.08 µM): 0.232
- relative viability (TGX 221 + Pemetrexed; first compound 0.253 µM): 0.279
- relative viability (TGX 221 + Pemetrexed; first compound 0.8 µM): 0.219
- relative viability (TGX 221 + Pemetrexed; first compound 2.53 µM): 0.275
- relative viability (TGX 221 + Pemetrexed; first compound 8 µM): 0.247
- relative viability (Ricolinostat + Dasatinib; first compound 0.08 µM): 0.34
- relative viability (Ricolinostat + Dasatinib; first compound 0.253 µM): 0.271
- relative viability (Ricolinostat + Dasatinib; first compound 0.8 µM): 0.444
- relative viability (Ricolinostat + Dasatinib; first compound 2.53 µM): 0.35
- relative viability ([2]; first compound 0.08 µM): 0.217
- relative viability ([2]; first compound 0.253 µM): 0.256
- relative viability ([2]; first compound 0.8 µM): 0.231
- relative viability ([2]; first compound 2.53 µM): 0.216
